Experimental data published in patent US4593019A, “N^6 -tricyclic adenosines” (Warner-Lambert Company, priority 1984, dated 1986).

Experiments:
A1 receptor = biological target: T1, A1 receptor (Rattus norvegicus, UniProt P25099); assay: Adenosine Receptor Binding - A1 Receptor Affinity (RBA1), [3H]-CHA displacement; conditions: 1.0 nM [3H]-CHA, rat brain membranes, pH 7.7, 25° C., 1 h; read-out: RBA-1 IC50 (adenosine A1 receptor affinity)
T1 construct: Whole brain minus cerebellum and brainstem from male Long Evans rats; from tissue; host or cells: rat whole brain minus cerebellum and brainstem (membranes)
T1 sequence (P25099 1-326): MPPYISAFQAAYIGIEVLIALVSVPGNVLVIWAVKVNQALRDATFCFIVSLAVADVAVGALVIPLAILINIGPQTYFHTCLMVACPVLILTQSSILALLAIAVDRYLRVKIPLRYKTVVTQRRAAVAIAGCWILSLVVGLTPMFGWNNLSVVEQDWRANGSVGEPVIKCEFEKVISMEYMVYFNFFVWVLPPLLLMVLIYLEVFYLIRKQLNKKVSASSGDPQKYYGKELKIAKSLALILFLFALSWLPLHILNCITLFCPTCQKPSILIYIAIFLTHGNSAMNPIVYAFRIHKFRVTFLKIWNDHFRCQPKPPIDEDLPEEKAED
Experimental: The supernatant was discarded, and the pellet was resuspended and centrifuged as before. […] Incubation volume was 2 ml. […] The radio-labeled ligand retained on the filter was measured by liquid scintillation spectrophotometry after shaking the filters for one hour or longer on a mechanical shaker in 10 ml of Beckman Ready-Solv HP scintillation cocktail. […] The maximal number of binding sites (Bmax) was calculated from the Scatchard plot.

A2 receptor = biological target: T2, A2 receptor (Rattus norvegicus, UniProt P30543); assay: Adenosine Receptor Binding - A2 Receptor Affinity (RBA2), [3H]NECA displacement; conditions: 4 nM [3H]NECA, 50 nM N6-cyclopentyladenosine, rat striatal membranes, 25° C., 60 min; read-out: RBA-2 IC50 (adenosine A2 receptor affinity)
T2 construct: 5 mg original tissue weight of rat weight of rat striatal membranes; tissue Pel-Freez (Rogers, Ark.); host or cells: rat striatum (membranes)
T2 sequence (P30543 whole entry): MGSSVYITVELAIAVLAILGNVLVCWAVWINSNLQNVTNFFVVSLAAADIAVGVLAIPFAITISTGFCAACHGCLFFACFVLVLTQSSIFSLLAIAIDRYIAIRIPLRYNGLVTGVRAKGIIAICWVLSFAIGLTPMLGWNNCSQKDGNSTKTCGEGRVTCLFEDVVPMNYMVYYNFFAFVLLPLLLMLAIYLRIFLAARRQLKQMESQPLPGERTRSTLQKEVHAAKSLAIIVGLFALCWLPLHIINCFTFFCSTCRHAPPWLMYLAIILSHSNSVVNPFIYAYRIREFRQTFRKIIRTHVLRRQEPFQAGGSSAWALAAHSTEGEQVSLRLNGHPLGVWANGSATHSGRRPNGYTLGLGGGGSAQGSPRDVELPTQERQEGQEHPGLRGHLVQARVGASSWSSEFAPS
Experimental: Adenosine Receptor Binding--A2 Receptor Affinity (RBA2)
Brains from 200-500 g mixed sex Sprague-Dawley rats were purchased from Pel-Freez (Rogers, Ark.). […] Brains were thawed and then kept on ice while the striata were dissected out. […] The suspension was centrifuged at 50,000 xg for ten minutes, the supernatant discarded, the pellet resuspended in 10 vol ice-cold Tris as above, recentrifuged, resuspended at 1 g/5 ml, and stored in plastic vials at -70° C. […] When needed, tissue was thawed at room temperature, disrupted in a Polytron, and kept on ice until used. […]
Nonspecific binding was defined as binding in the presence of 100 μM N^6 -cyclopentyladenosine, and specific binding was defined as total binding minus nonspecific binding. The IC50 was calculated by weighted nonlinear least squares curve-fitting to the mass-action equation. […]
Weighting factors were calculated under the assumption that the standard deviation was proportional to the predicted value of Y. Nonspecific binding was treated as a very large (infinite) concentration of drug in the computer analysis.

[1] = Mouse Activity and Screen Test Procedure (MAST): inhibition of spontaneous locomotion; assay type: in vivo, mouse (male Swiss-Webster); conditions: one hour prior to testing, accumulated over one hour
Experimental: (§1) Nine unfasted Swiss-Webster male mice weighing 20-30 g are equally divided into three groups for each drug dose to be tested. That is, data for each dose level was generated by three separate groups of three mice each.
(§2) A minimum of three dose levels (10, 30, and 100 mg/kg) are tested for each drug. Treatments are administered intraperitoneally one hour prior to testing. All dosages are calculated as parent compound and given in volumes of 10 ml/kg. Compounds are dissolved or suspended in 0.2% Methocel. Control animals are injected with Methocel.
A two part testing procedure is started one hour postinjection. […] Briefly this test consists of placing mice on individual wire screens which are then rotated 180 degrees at the start of a 60 second observation period. The number of mice falling off the inverted screen is recorded.
The actophotometer consists of a cylindrical chamber whose center is occupied by another cylinder which contains the illumination for six photocells located on the perimeter of the chamber. Six light-beam interruptions equal one count. Locomotor activity is recorded by computer at ten minute intervals for 60 minutes.
The data obtained from the screen test are expressed as percent of mice falling off the screen. Data derived from locomotor activity of drug treated mice are compared to the activity of vehicle treated animals and are expressed as percent inhibition of spontaneous locomotion. All percentages reported for inhibition of locomotion (LI) are based upon data accumulated for one hour. […] An overall dose rating is obtained by the following criteria:
LAD refers to the lowest dose at which an A rating is achieved. […] The compounds are identified in the examples.

mice = assay: Mouse Activity and Screen Test Procedure (MAST): screen test failure; assay type: in vivo, mouse (male Swiss-Webster); conditions: one hour postinjection
Source text: The compounds of the invention are new chemical substances which are useful as pharmaceutical agents for the treatment of psychoses. The antipsychotic activity of representative compounds of the invention was established by the Mouse Activity and Screen Test Procedure (MAST) described below.
as §1, §2
A two part testing procedure is started one hour postinjection. First, the screen test (ST) is performed (see Pharmac. Biochem. Behav. 6, 351-353, 1977). Briefly this test consists of placing mice on individual wire screens which are then rotated 180 degrees at the start of a 60 second observation period. The number of mice falling off the inverted screen is recorded.
The data obtained from the screen test are expressed as percent of mice falling off the screen. Data derived from locomotor activity of drug treated mice are compared to the activity of vehicle treated animals and are expressed as percent inhibition of spontaneous locomotion. All percentages reported for inhibition of locomotion (LI) are based upon data accumulated for one hour. Both phases of testing are graded: A=60-100%; C=31-59%; and N=0-30%. An overall dose rating is obtained by the following criteria: […]

[2] = Antihypertensive evaluation (AHP3): direct monitoring of aortic blood pressure and heart rate in conscious rats; assay type: in vivo; conditions: 10 mg/kg, conscious rat
Experimental: This test procedure is described in the following paragraphs.
The continuous monitoring of pulsatile blood pressure (BP) from unrestrained conscious rats surgically equipped with polyethylene cannulas was accomplished by means of a computer assisted data capture scheme (CADCS). The basic elements of the methodology are the cannulation procedure and the CADCS.
Cannulation Procedure: Rats were anesthetized with Telazol (1:1 tiletamine HCl and zolazepam HCl); 20-40 mg/kg IM and the descending aorta exposed via a midline incision. Cannulas fabricated from polyethylene tubing were inserted into the aorta via an undersized puncture hole below the renal arteries. The puncture hole was made by a 23 G disposable needle with a section of the aorta clamped off above and below the puncture site. The cannulas, consisting of a PE100 (0.86 mm ID) body and a PE50 (0.58 mm ID) tip, were attached to a trocar, inserted through the psoas muscle, and passed subcutaneously along the midline of the back and externalized between the ears. The cannulas were anchored to the psoas muscle and between the scalulae (3-0 green braided suture). The midline incision was closed in two steps (muscle first, skin second) using continuous over-and over sutures (4-0 chronic). Each rat was then given penicillin 30,000 units subcutaneously (Penicillin G Procaine Sterile Suspension).
The rats were fitted with a harness-spring-swivel assembly designed to protect the cannula and to provide the rat relative freedom of movement. The harnesses were fabricated from nylon hook and loop tape cemented to a metal plate to which spring wires (18-8 stainless steel), were attached to brass swivels. […] While on test, each rat received a continuous slow infusion of heparinized saline solution (approximately […] or 40 units of heparin per 24 hour period) to prevent clot formation. Additional "flushes" of the cannula with heparinized saline were carried out when the aortic pulse pressure (systolic minus diastolic) was less than 25 mm Hg.
CADCS: The pulsatile blood pressure and heart rate of each of 32 rats was monitored every minute by means of two in-laboratory microcomputers communicating directly with a data concentrator computer. The data were first stored on the data concentrator disk and then transferred to a magnetic tape for analysis and report generation by the main research computer. The overall scheme involved modulating the primary signal from the pressure transducer, generating the primary data set of the one-minute values for systolic, diastolic, and mean blood pressures and heart rate by the in-lab microcomputer and the storage, analysis, and report generation by the main reserach computer.
The transducers were connected to analog signal conditioning modules. The modules provided a regulated excitation voltage for the transducers, amplification as required to interface the microprocessors and an active low pass filter to compensate for the pressure wave form distortion produced by the flexible, fluid filled, narrow cannula.
The microcomputers (one for each of two groups of 16 rats) were connected to the input components through the module interface units, an analog-to-digital converter for the pressure wave form signal and the digital inputs for the dose and event marker switches. The microcomputer controlled the sequential acquisition of data from the modular interface units through an internal synchronous time-of-day clock/time base generator. Utilizing the time base generator as a reference, the blood pressure values and the marker switch status for each of the 32 stations were sampled every ten msec. The microcomputer processed each blood pressure sample as it was received to produce "running average" values for heart rate, and mean, systolic and diastolic blood pressures.

SMILES | IC50 (A1 receptor) | IC50 (A2 receptor) | Inhibition of Mouse Locomotion Activity ([1]; 10 mg/kg i.p.) | Inhibition of Mouse Locomotion Activity ([1]; 30 mg/kg i.p.) | Inhibition of Mouse Locomotion Activity ([1]; 100 mg/kg i.p.) | Screen Test Failure (percent of mice falling off the screen) (mice; 10 mg/kg i.p.) | Screen Test Failure (percent of mice falling off the screen) (mice; 30 mg/kg i.p.) | Screen Test Failure (percent of mice falling off the screen) (mice; 100 mg/kg i.p.) | Inhibition of Mouse Locomotion Activity ([1]; 1 mg/kg i.p.) | Inhibition of Mouse Locomotion Activity ([1]; 3 mg/kg i.p.) | Screen Test Failure (percent of mice falling off the screen) (mice; 1 mg/kg i.p.) | Screen Test Failure (percent of mice falling off the screen) (mice; 3 mg/kg i.p.) | HR ↑ (increase in heart rate) ([2]; 1 hour) | MAP ↓ (decrease in mean arterial blood pressure) ([2]; 1 hour) | HR ↑ (increase in heart rate) ([2]; 3 hours) | MAP ↓ (decrease in mean arterial blood pressure) ([2]; 3 hours) | HR ↑ (increase in heart rate) ([2]; 5 hours) | MAP ↓ (decrease in mean arterial blood pressure) ([2]; 5 hours) | HR ↑ (increase in heart rate) ([2]; 7 hours) | MAP ↓ (decrease in mean arterial blood pressure) ([2]; 7 hours) | other results
OC[C@H]1O[C@@H](n2cnc3c(NC4c5ccccc5-c5ccccc54)ncnc32)[C@H](O)[C@@H]1O [Example 1] | 8600 nM | 51000 nM | 41% | 60% | 68% | 0% | 0% | 0% |  |  |  |  |  |  |  |  |  |  |  |  | 
OC[C@H]1O[C@@H](n2cnc3c(NCC4c5ccccc5Oc5ccccc54)ncnc32)[C@H](O)[C@@H]1O [Example 4, N^6-[Xanthene-9-methylamino]adenosine] | 85 nM | 65 nM | 72% | 91% | 91% | 0% | 11% | 44% | -5% | 17% | 0% | 0% | 16% | 11% | 19% | 4% | 25% | 8% | 15% | 12% | HR ↑ (increase in heart rate) ([2]; 9 hours): 18%; MAP ↓ (decrease in mean arterial blood pressure) ([2]; 9 hours): 8%
OC[C@H]1O[C@@H](n2cnc3c(NCC4c5ccccc5-c5ccccc54)ncnc32)[C@H](O)[C@@H]1O [Example 2] |  |  | 97% | 97% | 91% | 44% | 55% | 55% | 56% | 94% | 11% | 33% | 24% | 32% | 27% | 32% | 20% | 34% | 13% | 28% | HR ↑ (increase in heart rate) ([2]; 9 hours): 13%; MAP ↓ (decrease in mean arterial blood pressure) ([2]; 9 hours): 30%
OC[C@H]1O[C@@H](n2cnc3c(NCCC4c5ccccc5-c5ccccc54)ncnc32)[C@H](O)[C@@H]1O [Example 3, N^6 -Fluorenylethyl adenosine] | 435 nM |  |  |  |  |  |  |  |  |  |  |  |  |  |  |  |  |  |  |  | 
